Values quoted from earlier work as cited in patent publication US8614315B2, “Cefdinir and cefixime formulations and uses thereof” (priority 2010, dated 2013).

Columns and labels:
[1] = pH 3.2, room temperature
[2] = not given; remark: listed apart in the source

SMILES	solubility in a solution with a pH value of 3.2 [1]	solubility in ethanol and acetone (ethanol, acetone)	solubility in ether, ethyl acetate, hexane and water (ether, ethyl acetate, hexane, water)	solubility in methanol and propylene glycol (methanol, propylene glycol)	solubility in water, methanol, ethanol, acetone and many other organic solvents [2]
C=CC1=C(C(=O)O)N2C(=O)[C@@H](NC(=O)/C(=N\OCC(=O)O)c3csc(N)n3)[C@H]2SC1 [Cefixime, (6R,7R)-7-{[2-(2-amino-1,3-thiazol-4-yl)-2-(carboxymethyloxyimino)acetyl]amino}-3-ethenyl-8-oxo-5-thia-1-azabicyclo [4.2.0]oct-2-en-2-carboxylic acid]	0.5 mg/mL	partially soluble	does not dissolve	freely soluble	–
C=CC1=C(C(=O)O)N2C(=O)[C@@H](NC(=O)/C(=N\O)c3csc(N)n3)[C@H]2SC1 [Cefdinir, (6R,7R)-7-[[(2Z)-(2-amino-4-thiazolyl)(hydroxyimino)acetyl]amino]-3-ethenyl-8-oxo-5-thia-1-azabicyclo[4.2.0]oct-2-en-2-carboxylic acid]	–	–	–	–	poor solubility
